Test results published in patent publication US12522615B2, “Macrocyclic compounds and derivatives as EGFR inhibitors” (Boehringer Ingelheim International GmbH, priority 2019, dated 2026).
Like-named read-outs stand apart in the source and are kept apart here. Blank lines part the entries; values can stand above or below the compound they belong to.

Columns and labels:
[1] = system: Ba/F3 cells driven by EGFR del19 T790M C797S; test: Ba/F3 proliferation assay (CellTiter-Glo viability); assay type: cell-based, murine; conditions: Mus musculus, BaF3, 72 h
Description: (§1) Plasmids containing EGFR mutants were obtained from GeneScript. To generate EGFR-dependent Ba/F3 models, Ba/F3 cells were transduced with retroviruses containing vectors that harbor EGFR isoforms. Platinum-E cells (Cell Biolabs) were used for retrovirus packaging. Retrovirus was added to Ba/F3 cells. To ensure infection, 4 μg/mL polybrene was added and cells were spinfected. Infection efficiency was confirmed by measuring GFP-positive cells using a cell analyzer. Cells with an infection efficiency of 10% to 20% were further cultivated and puromycin selection with 1 μg/mL was initiated. As a control, parental Ba/F3 cells were used to show selection status. Selection was considered successful when parental Ba/F3 cells cultures died. To evaluate the transforming potential of EGFR mutations, the growth medium was no longer supplemented with IL-3. Ba/F3 cells harboring the empty vector were used as a control. A switch from IL-3 to EGF was performed for Ba/F3 cells with the wildtype EGFR known for its dependency on EGF ligand. Approximately ten days before conducting the experiments, puromycin was left out. For proliferation assays (data in table 13), Ba/F3 cells were seeded into 96-well plates at 5×10^3 cells/100 μL in growth media. Compounds were added by using a HP D3000 Digital Dispenser. All treatments were performed in technical triplicates. Treated cells were incubated for 72 h at 37° C. with 5% CO2. CellTiter-Glo® Luminescent Cell Viability Assay (Promega) was performed and chemoluminescence was measured by using the multilabel Plate Reader VICTOR X4. The raw data were imported into and analyzed with the Boehringer Ingelheim proprietary software MegaLab (curve fitting based on the program PRISM, GraphPad Inc.).

[2] = system: Ba/F3 cells driven by EGFR L858R; test: as above; assay type: cell-based, murine; conditions: Mus musculus, BaF3, 72 h
Description: as §1

[3] = system: Ba/F3 cells driven by EGFR del19 C797S; test: as above; assay type: cell-based, murine; conditions: Mus musculus, BaF3, 72 h
Description: as §1

[4] = system: Ba/F3 cells driven by EGFR L858R T790M C797S; test: as above; assay type: cell-based, murine; conditions: Mus musculus, BaF3, 72 h
Description: as §1

[5] = system: Ba/F3 cells driven by EGFR del19; test: as above; assay type: cell-based, murine; conditions: Mus musculus, read-out: IC50 EGFR del19
Description: as §1

[6] = system: Ba/F3 cells driven by EGFR L858R T790M; test: as above; assay type: cell-based, murine; conditions: Mus musculus, BaF3, 72 h
Description: as §1

[7] = system: Ba/F3 cells driven by EGFR wt; test: as above; assay type: cell-based, murine; conditions: Mus musculus, BaF3, 72 h
Description: as §1

[8] = system: Ba/F3 cells EGFR-indep. + IL-3; test: as above; assay type: cell-based, murine; conditions: Mus musculus, BaF3, 72 h
Description: as §1

[9] = system: Ba/F3 cells driven by EGFR del19 T790M; test: as above; assay type: cell-based, murine; conditions: Mus musculus, BaF3, 72 h
Description: as §1

[10] = system: Ba/F3 cells driven by EGFR L858R C797S; test: as above; assay type: cell-based, murine; conditions: Mus musculus, BaF3, 72 h
Description: as §1

EGFR del19 T790M C797S = EGFR del19 T790M C797S (Homo sapiens, UniProt P00533, C797S/T790M, form not given); test: pEGFR assay: phosphorylation of EGFR at Tyr1068 in Ba/F3 cells (AlphaScreen Surefire); assay type: cell-based; conditions: 4 h
Sequence of EGFR del19 T790M C797S (P00533 25-1210 T790M/C797S limits assumed, form open): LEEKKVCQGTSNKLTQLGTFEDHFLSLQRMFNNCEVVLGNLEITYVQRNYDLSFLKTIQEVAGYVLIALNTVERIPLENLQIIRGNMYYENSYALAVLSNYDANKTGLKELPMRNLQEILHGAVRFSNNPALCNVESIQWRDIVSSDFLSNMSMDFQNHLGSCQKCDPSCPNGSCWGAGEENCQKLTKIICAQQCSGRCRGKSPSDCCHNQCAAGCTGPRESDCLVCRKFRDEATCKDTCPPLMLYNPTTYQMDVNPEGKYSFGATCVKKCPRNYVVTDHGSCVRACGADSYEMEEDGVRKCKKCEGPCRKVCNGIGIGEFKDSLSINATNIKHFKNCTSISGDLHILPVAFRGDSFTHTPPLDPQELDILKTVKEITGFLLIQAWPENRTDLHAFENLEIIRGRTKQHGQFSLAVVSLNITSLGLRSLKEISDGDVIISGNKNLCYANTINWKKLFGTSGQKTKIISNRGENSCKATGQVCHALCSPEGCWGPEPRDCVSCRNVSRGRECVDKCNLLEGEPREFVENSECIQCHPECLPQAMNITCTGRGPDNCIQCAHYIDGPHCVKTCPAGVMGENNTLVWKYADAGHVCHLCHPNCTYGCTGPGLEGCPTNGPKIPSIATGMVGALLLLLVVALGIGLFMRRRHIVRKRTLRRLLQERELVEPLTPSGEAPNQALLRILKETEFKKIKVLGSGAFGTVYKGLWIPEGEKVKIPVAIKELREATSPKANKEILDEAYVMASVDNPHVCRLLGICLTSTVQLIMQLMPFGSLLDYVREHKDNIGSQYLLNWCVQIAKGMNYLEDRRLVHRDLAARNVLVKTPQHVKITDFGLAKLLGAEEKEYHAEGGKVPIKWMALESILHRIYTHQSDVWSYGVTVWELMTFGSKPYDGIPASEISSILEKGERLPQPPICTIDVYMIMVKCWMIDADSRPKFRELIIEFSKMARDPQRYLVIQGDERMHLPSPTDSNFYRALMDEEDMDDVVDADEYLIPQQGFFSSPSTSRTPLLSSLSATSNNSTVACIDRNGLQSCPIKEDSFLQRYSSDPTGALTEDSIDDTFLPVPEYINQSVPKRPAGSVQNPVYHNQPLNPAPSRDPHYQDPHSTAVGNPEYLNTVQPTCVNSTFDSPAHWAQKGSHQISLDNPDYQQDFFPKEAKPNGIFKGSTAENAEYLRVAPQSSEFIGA
Description: Transduced cells were selected using puromycin. Following selection, IL-3 was withdrawn and IL-3 independent cells cultured. p-EGFR Tyr1068 was determined using the AlphaScreen Surefire pEGF Receptor (Tyr1068) Assay (PerkinElmer, TGRERS). […] Subsequently, 60.000 cells/well in 60 μL were added. Cells were incubated with compound for 4 h at 37° C. […] The mixture was incubated at room temperature with shaking (700 rpm) for 20 min. After centrifugation, 4 μL of the lysate were transferred to Proxiplates. […] Plates were shaken for 1 min (1400 rpm) and incubated for 2 h at room temperature in the dark.

EGFR wt = EGFR wt (Homo sapiens (Human), UniProt P00533); test: Biochemical EGFR inhibition assay (poly-GT substrate phosphorylation, TR-FRET LANCE Ultra)
Sequence of EGFR wt (P00533 25-1210): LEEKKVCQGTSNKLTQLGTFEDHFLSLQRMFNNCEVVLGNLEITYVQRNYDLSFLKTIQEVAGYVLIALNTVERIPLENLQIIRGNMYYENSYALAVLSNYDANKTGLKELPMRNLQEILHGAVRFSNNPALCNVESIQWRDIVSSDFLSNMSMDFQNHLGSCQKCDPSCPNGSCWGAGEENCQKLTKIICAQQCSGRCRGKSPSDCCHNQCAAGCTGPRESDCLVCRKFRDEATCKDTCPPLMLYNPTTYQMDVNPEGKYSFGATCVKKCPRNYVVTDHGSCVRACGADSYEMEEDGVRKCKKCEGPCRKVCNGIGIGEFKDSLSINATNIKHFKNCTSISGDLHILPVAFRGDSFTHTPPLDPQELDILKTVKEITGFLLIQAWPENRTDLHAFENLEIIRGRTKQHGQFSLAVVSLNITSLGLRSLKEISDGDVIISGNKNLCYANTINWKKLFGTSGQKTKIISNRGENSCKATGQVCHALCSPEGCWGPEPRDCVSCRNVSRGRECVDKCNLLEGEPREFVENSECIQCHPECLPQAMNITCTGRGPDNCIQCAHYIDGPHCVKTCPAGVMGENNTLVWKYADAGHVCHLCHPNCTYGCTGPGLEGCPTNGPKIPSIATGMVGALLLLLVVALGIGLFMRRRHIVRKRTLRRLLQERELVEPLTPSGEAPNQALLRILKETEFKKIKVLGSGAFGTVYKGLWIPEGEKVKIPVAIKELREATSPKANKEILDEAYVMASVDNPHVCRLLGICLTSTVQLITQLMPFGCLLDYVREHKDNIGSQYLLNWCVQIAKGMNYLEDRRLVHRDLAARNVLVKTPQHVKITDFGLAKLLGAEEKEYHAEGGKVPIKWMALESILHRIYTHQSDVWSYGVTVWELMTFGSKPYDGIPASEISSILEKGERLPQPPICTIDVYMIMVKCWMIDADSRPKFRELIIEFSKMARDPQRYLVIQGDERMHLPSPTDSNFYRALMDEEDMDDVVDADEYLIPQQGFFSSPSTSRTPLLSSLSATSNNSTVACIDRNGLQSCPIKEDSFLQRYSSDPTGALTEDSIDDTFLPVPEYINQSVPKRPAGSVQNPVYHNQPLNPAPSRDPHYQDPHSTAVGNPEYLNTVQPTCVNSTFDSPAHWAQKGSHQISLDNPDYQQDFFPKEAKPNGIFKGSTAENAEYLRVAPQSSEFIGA
Description: (§2) Initially, the inhibitory effect of compounds according to the invention is measured in biochemical assays which measure the phosphorylation activity of EGFR enzyme forms on poly-GT substrate in the presence of different concentrations of ATP (5 μM and 100 μM final assay concentration).
(§3) The following enzyme forms of EGFR are representative examples that can be used in these assays at the given concentrations:
(§4) For the chosen highest assay concentration of 100 μM, 150 nL of compound solution is transferred from a 10 mM DMSO compound stock solution. A series of eleven fivefold dilutions per compound is transferred to the assay plate, compound dilutions are tested in duplicates. DMSO is added as backfill to a total volume of 150 nL. The assay runs on a fully automated robotic system.
(§5) 5 μL of EGFR enzyme form in assay buffer (50 mM HEPES pH 7.3, 10 mM MgCl2, 1 mM EGTA, 0.01% Tween 20, 2 mM DTT) are dispensed into columns 1-23, than 5 μL of ATP and ULight-poly-GT substrate (PerkinElmer; TRF0100-M) mix in assay buffer is added to all wells (final assay concentration of the ULight-poly-GT substrate 200 nM). Each of the different EGFR enzyme form assays is available at low ATP (final assay concentration 5 μM) and high ATP levels (final assay concentration 100 μM). After 90 minutes incubation at room temperature 5 μL EDTA (final assay concentration 50 mM) and LANCE Eu-anti-P-Tyr (PT66) antibody (PerkinElmer, AD0069) (final assay concentration 6 nM) mix are added to stop the reaction and start the binding of the antibody. […] Each plate contains 16 wells of a negative control (diluted DMSO instead of test compound; w EGFR enzyme form; column 23) and 16 wells of a positive control (diluted DMSO instead of test compound; w/o EGFR enzyme form; column 24). Negative and positive control values are used for normalization and IC50 values are calculated and analysed using a 4 parametric logistic model.
(§6) These biochemical EGFR enzyme form compound dose-response assays quantify the kinase activity via phosphorylation of a tagged poly-GT substrate. The results of the assay are provided as IC50 values.

[11] = biological target: EGFR (mutated) 695-1022, T790M, C797S, L858R (Homo sapiens (Human), UniProt P00533, C797S/L858R/T790M); test: as above
Sequence of EGFR (mutated) 695-1022, T790M, C797S, L858R (P00533 695-1022 T790M/C797S/L858R): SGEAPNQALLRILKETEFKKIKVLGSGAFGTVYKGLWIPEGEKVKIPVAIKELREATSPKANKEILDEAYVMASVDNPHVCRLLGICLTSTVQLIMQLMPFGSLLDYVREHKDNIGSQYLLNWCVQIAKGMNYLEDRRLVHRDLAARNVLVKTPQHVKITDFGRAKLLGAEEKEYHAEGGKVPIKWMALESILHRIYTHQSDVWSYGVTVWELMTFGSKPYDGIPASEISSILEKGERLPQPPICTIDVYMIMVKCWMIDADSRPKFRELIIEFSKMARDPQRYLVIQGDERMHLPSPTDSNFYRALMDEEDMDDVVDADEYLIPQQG
Description: as §2, §3, §4, §5, §6

[12] = biological target: EGFR (d746-750 T790M C797S) (Homo sapiens (Human), UniProt P00533, C797S/DEL746-750/T790M); test: as above; conditions: 5 μM ATP; read-out: Del_TM_CS (5 μM ATP)
Sequence of EGFR (d746-750 T790M C797S) (P00533 other isoform, or with tags, fused parts or gaps T790M/C797S/del 1-694/del 746-750 limits assumed): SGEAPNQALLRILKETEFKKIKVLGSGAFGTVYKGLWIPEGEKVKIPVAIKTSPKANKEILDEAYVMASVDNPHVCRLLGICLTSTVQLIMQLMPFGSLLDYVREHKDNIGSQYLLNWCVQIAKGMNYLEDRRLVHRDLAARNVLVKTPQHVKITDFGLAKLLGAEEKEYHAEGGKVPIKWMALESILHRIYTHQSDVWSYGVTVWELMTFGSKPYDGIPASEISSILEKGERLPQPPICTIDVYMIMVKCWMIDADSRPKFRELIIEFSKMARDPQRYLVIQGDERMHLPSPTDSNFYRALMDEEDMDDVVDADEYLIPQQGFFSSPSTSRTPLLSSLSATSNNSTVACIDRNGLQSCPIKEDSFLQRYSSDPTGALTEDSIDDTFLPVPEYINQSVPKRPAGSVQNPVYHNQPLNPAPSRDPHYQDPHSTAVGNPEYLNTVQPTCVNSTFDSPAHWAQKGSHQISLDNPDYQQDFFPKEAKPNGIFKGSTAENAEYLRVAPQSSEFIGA
Description: as §2, §3
Test compounds dissolved in DMSO are dispensed onto assay plates (Proxiplate 384 PLUS, white, PerkinElmer; 6008289) using an Access Labcyte Workstation with the Labcyte Echo 55x. […]
5 μL of EGFR enzyme form in assay buffer (50 mM HEPES pH 7.3, 10 mM MgCl2, 1 mM EGTA, 0.01% Tween 20, 2 mM DTT) are dispensed into columns 1-23, than 5 μL of ATP and ULight-poly-GT substrate (PerkinElmer; TRF0100-M) mix in assay buffer is added to all wells (final assay concentration of the ULight-poly-GT substrate 200 nM). […] After additional 60 minutes incubation at room temperature the signal is measured in a PerkinElmer Envision HTS Multilabel Reader using the TR-FRET LANCE Ultra specs of PerkinElmer (used wavelengths: excitation 320 nm, emission 1 665 nm, emission 2 615 nm). […] Negative and positive control values are used for normalization and IC50 values are calculated and analysed using a 4 parametric logistic model. […]

EGFR M+ NSCLC patients = EGFR M+ NSCLC patients treated in 1st line; cited from earlier work
[13] = system: EGFR M+ T790M-positive patients; conditions: 2nd line, previously treated with earlier generation EGFR TKI; cited from earlier work
[14] = 5 μM ATP, read-out: wt (5 μM ATP)
[15] = 100 μM ATP, read-out: wt (100 μM ATP)
[16] = 5 μM ATP, read-out: LR_TM_CS (5 μM ATP)
[17] = 100 μM ATP, read-out: LR_TM_CS (100 μM ATP)

Compound: Cc1cc2cc(n1)-c1cnn(C)c1OCCC[C@@H](C)CN1/C(=N/C2=O)Nc2ccc(CN3CCN(C)CC3)cc21 [Compound I-021]
IC50 [1]: 0.2 nM
IC50 [2]: 7 nM
IC50 [3]: 0.5 nM
IC50 [4]: 0.4 nM
IC50 ([5]; BaF3, viability, 72 h): 1 nM
IC50 [6]: 0.9 nM
IC50 [7]: 190 nM
IC50 [8]: 1100 nM
IC50 [9]: 0.3 nM
IC50 [10]: 4 nM

Compound: CC(=O)N1CCCCC(n2/c(=N/C(=O)c3ccnc(C)c3)[nH]c3cccc(Cl)c32)C1 (centres unmarked) [Exp. WO 2014/121942, reference compound]
IC50 [1]: 770 nM
IC50 [4]: 2200 nM
IC50 [7]: 2800 nM
IC50 [8]: 3500 nM

Compound: COc1cc2ncnc(Nc3ccc(F)c(Cl)c3)c2cc1NC(=O)/C=C/CN1CCCCC1 [dacomitinib]
IC50 [2]: 0.03 nM
IC50 [3]: 1.6 nM
IC50 ([5]; BaF3, viability, 72 h): 0.01 nM
IC50 [7]: 0.64 nM
IC50 [10]: 6.9 nM

Compound: C#Cc1cccc(Nc2ncnc3cc(OCCOC)c(OCCOC)cc23)c1 [erlotinib]
objective response rate (EGFR M+ NSCLC patients): 60-85%

Compound: Cc1cc(C(=O)Nc2nc3cccc(Cl)c3n2[C@@H]2CCCCN(C(=O)/C=C/CN(C)C)C2)ccn1 [nazartinib]
IC50 [2]: 5.1 nM
IC50 ([5]; BaF3, viability, 72 h): 1.1 nM
IC50 [8]: > 5000 nM

Compound: C=CC(=O)Nc1cc(Nc2nccc(-c3cn(C)c4ccccc34)n2)c(OC)cc1N(C)CCN(C)C [osimertinib]
patients that respond to treatment [13]: Approximately 70%
objective response rate (EGFR M+ NSCLC patients): 60-85%
IC50 ([5]; BaF3, 72 h): 0.5 nM

The next lines start with the values.

IC50 (EGFR del19 T790M C797S): 1.2 nM
IC50 (EGFR wt; [14]): 13 nM
IC50 (EGFR wt; [15]): > 100000 nM
IC50 [11, 16]: 0.3 nM
IC50 [11, 17]: 3 nM
IC50 [12]: 0.2 nM
Compound: Cn1ncc2c1OCCCCCN1/C(=N/C(=O)c3cc(F)nc-2c3)Nc2ccccc21 [Compound I-037]

IC50 (EGFR del19 T790M C797S): 4.1 nM
IC50 (EGFR wt; [14]): 18 nM
IC50 (EGFR wt; [15]): > 100000 nM
IC50 [11, 16]: 1.8 nM
IC50 [11, 17]: 16 nM
IC50 [12]: 1.3 nM
Compound: C[C@@H]1CCCOc2ccccc2-c2cc(ccn2)C(=O)N=C2Nc3ccccc3N2C1 [Compound I-046]
